Assay results from publication PMC6288471 (Frontiers in Veterinary Science, 2018).

Biological target: T1, bovine activated Factor X (Bos taurus, UniProt P00743)
T1 construct: purchased Diagnostica Stago STA®-Liquid anti-Xa
Assay: Apixaban-calibrated chromogenic anti-Xa activity assay in platelet-poor plasma of dosed horses
Type: in vivo, horse
Details: for Anti-Xa activity (ng/mL), median (range): PO 0.2 mg/kg
Description: The PPP was harvested from the supernatant of PRP after high-speed centrifugation (13,000 × g, Accuspin Micro, Thermo Scientific, Rockford, IL, USA) for 5 min. The PPP was frozen at −20°C and assays were performed in batches. The PPP was thawed at 37°C in a water bath before analysis with an automated coagulation analyzer (STA® Compact, Diagnostica Stago, Parsipanny, NJ, USA). The assay is configured with a bovine activated Factor X reagent added in excess to the test plasma and a chromogenic substrate of Factor Xa (STA®-Liquid anti-Xa, Diagnostica Stago). In this assay, residual, uninhibited Factor Xa cleaves the chromogenic substrate such that the inverse of the color change in the reaction mixture is proportional to the drug concentration in the test plasma.

T1 sequence (P00743 234-492 limits assumed): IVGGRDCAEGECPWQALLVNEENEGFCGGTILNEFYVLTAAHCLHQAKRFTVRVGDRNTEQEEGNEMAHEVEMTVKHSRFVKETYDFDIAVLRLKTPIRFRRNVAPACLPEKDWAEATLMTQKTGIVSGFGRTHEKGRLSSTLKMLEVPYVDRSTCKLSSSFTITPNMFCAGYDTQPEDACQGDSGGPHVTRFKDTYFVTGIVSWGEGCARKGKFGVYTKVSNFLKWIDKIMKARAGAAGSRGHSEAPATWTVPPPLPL
T1 sequence (P00743 41-180 limits assumed): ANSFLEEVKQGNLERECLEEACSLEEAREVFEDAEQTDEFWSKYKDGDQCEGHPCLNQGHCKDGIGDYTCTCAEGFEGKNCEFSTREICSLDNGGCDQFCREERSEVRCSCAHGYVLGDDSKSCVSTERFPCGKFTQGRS

COc1ccc(-n2nc(C(N)=O)c3c2C(=O)N(c2ccc(N4CCCCC4=O)cc2)CC3)cc1 [apixaban]
Anti-Xa activity (ng/mL), median (range) (15 min): 7.4 (5.9–9.4) ng/mL
Anti-Xa activity (ng/mL), median (range) (30 min): 7.5 (6.8–12.5) ng/mL
Anti-Xa activity (ng/mL), median (range) (45 min): 9.9 (8.4–10.1) ng/mL
Anti-Xa activity (ng/mL), median (range) (1 h): 10.9 (8.4–17) ng/mL
Anti-Xa activity (ng/mL), median (range) (2 h): 9.7 (7.4–14.8) ng/mL
Anti-Xa activity (ng/mL), median (range) (4 h): 9.3 (3.8–12) ng/mL
Anti-Xa activity (ng/mL), median (range) (6 h): 10.7 (6.3–13.8) ng/mL
Anti-Xa activity (ng/mL), median (range) (24 h): 7.6 (0–8.3) ng/mL
change in anti-Xa activity (oral dosing of apixaban): No change
